Publication PMC8252455, “Prediction of a clinically effective dose of THY1773, a novel V 1B receptor antagonist, based on preclinical data” (Biopharmaceutics & Drug Disposition, 2021)

Legend:
[1] = PK and urinary excretion in rats; format: in vivo, rat
Description: (§1) The PK and urinary excretion of THY1773 in rats (1 mg/kg) and dogs (0.5 mg/kg) under fasted conditions were evaluated following intravenous or oral administration of THY1773. THY1773 was dissolved in 10% (vol/vol) hydroxypropyl‐β‐cyclodextrin at pH 4 for intravenous administration, or suspended in 0.5% (wt/vol) methyl cellulose 400 for oral administration. After a single intravenous or oral administration of THY1773, blood samples were collected into tubes containing EDTA‐2K as an anticoagulant. The scheduled time points were predose (dog only), 5 (intravenous only), 15, 30 min, 1, 2, 4, 8, 12, and 24 h postdose. Plasma was separated by centrifugation. Urine samples were collected into bottles set on ice for 24 h after intravenous administration of THY1773. Plasma and urine samples were treated with 4 volumes of acetonitrile/methanol (9:1, vol/vol) containing the IS. After centrifugation (3639 × g, 4°C, 10 min) to remove precipitated proteins, the supernatant was subjected to LC‐MS/MS analysis. The distributions of THY1773 into brain and pituitary gland in rats were investigated after a single oral administration of THY1773 (1 mg/kg). Blood was collected from the tail vein into tubes containing EDTA‐2K at 1 h after a single oral administration of THY1773, and the plasma was separated by centrifugation (12000 × g, 4°C, 3 min). After blood collection, the brain and pituitary gland were excised followed by homogenization with approximately 4 volumes of distilled water. Plasma, brain, and pituitary samples were treated with 4 volumes of acetonitrile/methanol (9:1, vol/vol) containing the IS and centrifuged (3639 × g, 4°C, 10 min). Aliquots of the supernatant were subjected to LC‐MS/MS analysis.
The plasma concentration–time profiles of THY1773 were analyzed by a non‐compartmental analysis with PK analysis software Phoenix WinNonlin® (version 6.1; Certara), and the PK parameters were calculated. The fraction excreted in urine was calculated by dividing the amount of THY1773 excreted in urine by the administered dose.

[2] = Metabolic stability in dog liver microsomes; format: in vitro ADME; conditions: 1 μmol/L
Description: (§2) The oxidative metabolism of THY1773 was evaluated in rat and dog liver microsomes. THY1773 (1 μmol/L) was incubated with pooled liver microsomes (0.25 mg protein/ml) in sodium–potassium phosphate buffer (pH 7.4) consisting of 100 mmol/L sodium phosphate, 100 mmol/L potassium chloride, 2.5 mmol/L magnesium chloride (MgCl2), 1.5 mmol/L glucose‐6‐phosphate (G‐6‐P), and 0.18 units/ml G‐6‐P dehydrogenase (G‐6‐PDH). The reactions were initiated by the addition of β‐nicotinamide–adenine dinucleotide phosphate, oxidized form (NADP^+, 0.16 mmol/L), and incubated for 10, 20, 30, 40, 50, and 60 min. […] The intrinsic clearance (CLint) was calculated by the substrate depletion method described by Naritomi et al. (2001).
(§3) Since the CLliver was underestimated in rats and dogs from CLint in liver microsomes, the ratio of observed in vivo CLint and predicted CLint was calculated as the empirical scaling factor (ESF) for the extrapolation of CLliver from in vitro data. […] The total plasma clearance (CLtotal) was calculated by Equation (4): (4) CLtotal=QH×fu×(CLint/fu,mic)/QH+(fu/Rb)×(CLint/fu,mic)+CLrenal where QH is hepatic blood flow, fu is the free fraction in plasma, fu,mic is the fraction unbound in HLMs, Rb is blood‐to‐plasma ratio, and CLrenal is renal clearance. The fu,mic value was calculated using the Simcyp population based simulator (Version 16 R1; Simcyp Ltd.). […]

[3] = Metabolic stability in rat liver microsomes; format: in vitro ADME; conditions: 1 μmol/L
Description: as §2, §3

[4] = target: T1, rat anterior pituitary membrane V1B receptor (Rattus norvegicus, UniProt P48974); test: In vitro binding, rat anterior pituitary membrane V1B receptor; conditions: unpublished data
T1 construct: rat anterior pituitary membrane V1B receptor; from tissue; host or cells: rat anterior pituitary membranes
T1 sequence (P48974 1-425): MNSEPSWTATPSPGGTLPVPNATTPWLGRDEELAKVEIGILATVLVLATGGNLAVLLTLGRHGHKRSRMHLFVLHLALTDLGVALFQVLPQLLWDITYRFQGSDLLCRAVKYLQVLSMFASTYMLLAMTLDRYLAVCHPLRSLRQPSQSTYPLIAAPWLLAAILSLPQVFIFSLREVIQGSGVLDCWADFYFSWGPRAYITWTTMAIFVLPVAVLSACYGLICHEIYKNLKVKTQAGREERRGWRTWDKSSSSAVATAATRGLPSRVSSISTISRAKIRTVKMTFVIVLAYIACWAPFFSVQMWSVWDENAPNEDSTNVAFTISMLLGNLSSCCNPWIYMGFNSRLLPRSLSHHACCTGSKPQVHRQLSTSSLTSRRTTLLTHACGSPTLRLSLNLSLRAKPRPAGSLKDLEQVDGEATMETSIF

[5] = Distribution into brain and pituitary gland in rats; format: in vivo, rat; conditions: 1 h after oral 1 mg/kg
Description: as §1, with “After blood collection, the brain and pituitary gland were excised followed by homogenization with approximately 4 volumes of distilled water. Plasma, brain, and pituitary samples were treated with 4 volumes of acetonitrile/methanol (9:1, vol/vol) containing the IS and centrifuged (3639 × g, 4°C, 10 min). Aliquots of the supernatant were subjected to LC‐MS/MS analysis.” left out

[6] = male rats, iv 1 mg/kg, mean (%CV), n=3
[7] = male rats, po 1 mg/kg, mean (%CV), n=3

Compound: CC(C)NC(=O)Cn1c(-c2cccc(Cl)c2)nn(-c2ccc(CCN3CCOCC3)cc2)c1=O [THY1773]
- AUC0‐∞ [1, 6]: 762 (14.9) h·ng/ml
- CLtotal [1, 6]: 1330 (13.7) ml/h/kg
- Vdss [1, 6]: 2220 (5.7) ml/kg
- t1/2 [1, 6]: 1.38 (2.3) h
- F (oral bioavailability) ([1]; male rats, po 1 mg/kg, 1 mg/kg): 46.6%
- AUC0‐∞ [1, 7]: 355 (13.5) h·ng/ml
- Cmax [1, 7]: 136 (11.8) ng/ml
- t1/2 [1, 7]: 1.45 (5.5) h
- tmax [1, 7]: 0.833 (34.6) h
- CLrenal compared with fu × GFR ([1]; rats): comparable to fu × GFR
- CLtotal as share of hepatic blood flow ([1]; rats, single intravenous administration): approximately 30 % of hepatic blood flow
- Urinary excretion of unchanged drug ([1]; rats, within 24 h post intravenous dosing): 4.6%
- CLint in liver microsomes [2]: 32.2 μL/min/mg protein
- CLint in liver microsomes [3]: 22.0 μL/min/mg protein
- Ki [4]: 80.1 nM
- Concentration ratio of brain to plasma [5]: 0.2
- Concentration ratio of pituitary gland to plasma [5]: 4.7
